In ChEMBL document CHEMBL2375248, “C1 and N5 derivatives of cerpegin: synthesis of a new series based on structure-activity relationships to optimize their inhibitory effect on 20S proteasome” (Bioorg Med Chem Lett, 2013):
The source made the active and inactive calls. The rule behind the calls is not given here.

Organism: Oryctolagus cuniculus
Assay: Inhibition of caspase-like activity of 20S proteasome in rabbit erythrocytes using Z-LLE-betaNA as substrate at 100 uM preincubated for 15 mins measured after 45 mins by fluorescence assay relative to control
Settings: not given
Compound `CC1(C)OC(=O)c2c1ccn(-c1ccc(S(=O)(=O)Nc3ncccn3)cc1)c2=O` has an inhibition of 51%.
With `Cc1noc(NS(=O)(=O)c2ccc(-n3ccc4c(c3=O)C(=O)OC4(C)C)cc2)c1C` the inhibition was 51%.
In the case of `CC1(C)OC(=O)c2c1ccn(-c1ccc(S(=O)(=O)Nc3ccnn3-c3ccccc3)cc1)c2=O`, the inhibition is reported as 28%.
With `CC1(C)OC(=O)c2c1ccn(-c1ccc(S(=O)(=O)Nc3ccccn3)cc1)c2=O` the inhibition was 64%.
`O=C1OC2(CCCCC2)c2ccn(CC(O)CN3CCOCC3)c(=O)c21` (centres undefined) gave an inhibition of 30.7%.
Work on `CC1(C)OC(=O)c2c1ccn(-c1ccc(S(=O)(=O)Nc3nccs3)cc1)c2=O` yielded an inhibition of 22%.
In the case of `CC(C)CC1(C)OC(=O)c2c1ccn(CCCN1CCOCC1)c2=O` (racemic), the inhibition is reported as 31.8%.

Tested on: not listed separately
Assay: Inhibition of chymotrypsin-like activity of 20S proteasome in rabbit erythrocytes using Suc-LLVY-AMC as substrate preincubated for 15 mins measured after 45 mins by fluorescence assay
Assay type: cell-based, Oryctolagus cuniculus
Settings: not given
With `CC1(C)OC(=O)c2c1ccn(-c1ccc(S(=O)(=O)Nc3ncccn3)cc1)c2=O` the IC50 was “Not Active”.
For `CC(C)CC1(C)OC(=O)c2c1ccn(CCc1ccc(Cl)cc1)c2=O` (racemic), the IC50 was “Not Active”.
With `CCN(CC)CC(O)Cn1ccc2c(c1=O)C(=O)OC2(C)c1ccccc1` (mixture of isomers) the IC50 was “Not Active”.
For `Cc1noc(NS(=O)(=O)c2ccc(-n3ccc4c(c3=O)C(=O)OC4(C)C)cc2)c1C`, the IC50 was “Not Active”.
With `CCN(CC)CC(O)Cn1ccc2c(c1=O)C(=O)OC21CCCCC1` (centres undefined) the IC50 was “Not Active”.
For `CC1(Cc2ccccc2)OC(=O)c2c1ccn(-c1ccc(S(N)(=O)=O)cc1)c2=O` (racemic), the IC50 was “Not Active”.
With `CC(=O)NS(=O)(=O)c1ccc(-n2ccc3c(c2=O)C(=O)OC3(C)C)cc1` the IC50 was “Not Active”.
With `Cc1cc(-n2ccc3c(c2=O)C(=O)OC32CCCCC2)n(-c2ccccc2)n1` the IC50 was “Not Active”.
With `CC1(CCc2ccccc2)OC(=O)c2c1ccn(-c1ccc(S(N)(=O)=O)cc1)c2=O` (racemic) the IC50 was “Not Active”.
For `CC1(C)OC(=O)c2c1ccn(-c1ccc(S(=O)(=O)Nc3ccnn3-c3ccccc3)cc1)c2=O`, the IC50 was “Not Active”.
In the case of `CC1(C)CC2(CCO1)OC(=O)c1c2ccn(CCCN2CCOCC2)c1=O` (centres undefined), the IC50 is reported as “Not Active”.
For `CC1(C)OC(=O)c2c1ccn(-c1ccc(S(=O)(=O)Nc3ccccn3)cc1)c2=O`, the IC50 was “Not Active”.
With `CC1(C)OC(=O)c2c1ccn(-c1ccc(S(=O)(=O)NC(=N)N)cc1)c2=O` the IC50 was “Not Active”.
With `O=C1OC2(CCCCC2)c2ccn(CC(O)CN3CCOCC3)c(=O)c21` (centres undefined) the IC50 was “Not Active”.
In the case of `CC1(C)OC(=O)c2c1ccn(-c1ccc(S(=O)(=O)Nc3nccs3)cc1)c2=O`, the IC50 is reported as “Not Active”.
In the case of `CC(C)CC1(C)OC(=O)c2c1ccn(CCCN1CCOCC1)c2=O` (racemic), the IC50 is reported as “Not Active”.

Tested on: not listed separately
Assay: Inhibition of trypsin-like activity of 20S proteasome in rabbit erythrocytes using Boc-LRR-AMC as substrate preincubated for 15 mins measured after 45 mins by fluorescence assay
Assay type: cell-based, Oryctolagus cuniculus
Settings: not given
In the case of `CC1(C)OC(=O)c2c1ccn(-c1ccc(S(=O)(=O)Nc3ncccn3)cc1)c2=O`, the IC50 is reported as “Not Active”.
For `CC(C)CC1(C)OC(=O)c2c1ccn(CCc1ccc(Cl)cc1)c2=O` (racemic), the IC50 was “Not Active”.
In the case of `CCN(CC)CC(O)Cn1ccc2c(c1=O)C(=O)OC2(C)c1ccccc1` (mixture of isomers), the IC50 is reported as “Not Active”.
In the case of `Cc1noc(NS(=O)(=O)c2ccc(-n3ccc4c(c3=O)C(=O)OC4(C)C)cc2)c1C`, the IC50 is reported as “Not Active”.
With `CCN(CC)CC(O)Cn1ccc2c(c1=O)C(=O)OC21CCCCC1` (centres undefined) the IC50 was “Not Active”.
In the case of `CC1(Cc2ccccc2)OC(=O)c2c1ccn(-c1ccc(S(N)(=O)=O)cc1)c2=O` (racemic), the IC50 is reported as “Not Active”.
With `CC(=O)NS(=O)(=O)c1ccc(-n2ccc3c(c2=O)C(=O)OC3(C)C)cc1` the IC50 was “Not Active”.
With `Cc1cc(-n2ccc3c(c2=O)C(=O)OC32CCCCC2)n(-c2ccccc2)n1` the IC50 was “Not Active”.
With `CC1(CCc2ccccc2)OC(=O)c2c1ccn(-c1ccc(S(N)(=O)=O)cc1)c2=O` (racemic) the IC50 was “Not Active”.
In the case of `CC1(C)OC(=O)c2c1ccn(-c1ccc(S(=O)(=O)Nc3ccnn3-c3ccccc3)cc1)c2=O`, the IC50 is reported as “Not Active”.
For `CC1(C)CC2(CCO1)OC(=O)c1c2ccn(CCCN2CCOCC2)c1=O` (centres undefined), the IC50 was “Not Active”.
With `CC1(C)OC(=O)c2c1ccn(-c1ccc(S(=O)(=O)Nc3ccccn3)cc1)c2=O` the IC50 was “Not Active”.
For `CC1(C)OC(=O)c2c1ccn(-c1ccc(S(=O)(=O)NC(=N)N)cc1)c2=O`, the IC50 was “Not Active”.
For `O=C1OC2(CCCCC2)c2ccn(CC(O)CN3CCOCC3)c(=O)c21` (centres undefined), the IC50 was “Not Active”.
In the case of `CC1(C)OC(=O)c2c1ccn(-c1ccc(S(=O)(=O)Nc3nccs3)cc1)c2=O`, the IC50 is reported as “Not Active”.
For `CC(C)CC1(C)OC(=O)c2c1ccn(CCCN1CCOCC1)c2=O` (racemic), the IC50 was “Not Active”.

Target: Cathepsin B (Homo sapiens) (UniProt P07858)
Assay: Inhibition of cathepsin B in human hepatocytes using Z-RR-AMC as substrate by fluorescence assay
Assay type: cell-based
Settings: Hepatocyte
In the case of `CC1(C)OC(=O)c2c1ccn(-c1ccc(S(=O)(=O)Nc3ncccn3)cc1)c2=O`, the inhibition is reported as “inactive”.
For `CC(C)CC1(C)OC(=O)c2c1ccn(CCc1ccc(Cl)cc1)c2=O` (racemic), the inhibition was “inactive”.
In the case of `CCN(CC)CC(O)Cn1ccc2c(c1=O)C(=O)OC2(C)c1ccccc1` (mixture of isomers), the inhibition is reported as “inactive”.
In the case of `Cc1noc(NS(=O)(=O)c2ccc(-n3ccc4c(c3=O)C(=O)OC4(C)C)cc2)c1C`, the inhibition is reported as “inactive”.
With `CCN(CC)CC(O)Cn1ccc2c(c1=O)C(=O)OC21CCCCC1` (centres undefined) the inhibition was “inactive”.
In the case of `CC1(Cc2ccccc2)OC(=O)c2c1ccn(-c1ccc(S(N)(=O)=O)cc1)c2=O` (racemic), the inhibition is reported as “inactive”.
In the case of `CC(=O)NS(=O)(=O)c1ccc(-n2ccc3c(c2=O)C(=O)OC3(C)C)cc1`, the inhibition is reported as “inactive”.
With `Cc1cc(-n2ccc3c(c2=O)C(=O)OC32CCCCC2)n(-c2ccccc2)n1` the inhibition was “inactive”.
In the case of `CC1(CCc2ccccc2)OC(=O)c2c1ccn(-c1ccc(S(N)(=O)=O)cc1)c2=O` (racemic), the inhibition is reported as “inactive”.
For `CC1(C)OC(=O)c2c1ccn(-c1ccc(S(=O)(=O)Nc3ccnn3-c3ccccc3)cc1)c2=O`, the inhibition was “inactive”.
For `CC1(C)CC2(CCO1)OC(=O)c1c2ccn(CCCN2CCOCC2)c1=O` (centres undefined), the inhibition was “inactive”.
In the case of `CC1(C)OC(=O)c2c1ccn(-c1ccc(S(=O)(=O)Nc3ccccn3)cc1)c2=O`, the inhibition is reported as “inactive”.
In the case of `CC1(C)OC(=O)c2c1ccn(-c1ccc(S(=O)(=O)NC(=N)N)cc1)c2=O`, the inhibition is reported as “inactive”.
With `O=C1OC2(CCCCC2)c2ccn(CC(O)CN3CCOCC3)c(=O)c21` (centres undefined) the inhibition was “inactive”.
With `CC1(C)OC(=O)c2c1ccn(-c1ccc(S(=O)(=O)Nc3nccs3)cc1)c2=O` the inhibition was “inactive”.
For `CC(C)CC1(C)OC(=O)c2c1ccn(CCCN1CCOCC1)c2=O` (racemic), the inhibition was “inactive”.

Tested on: not listed separately
Assay: Inhibition of caspase-like activity of 20S proteasome in rabbit erythrocytes using Z-LLE-betaNA as substrate preincubated for 15 mins measured after 45 mins by fluorescence assay
Assay type: cell-based, Oryctolagus cuniculus
Settings: not given
With `Cc1cc(-n2ccc3c(c2=O)C(=O)OC32CCCCC2)n(-c2ccccc2)n1` the IC50 was “Not Active”.

Same assay, conditions: read-out: IC50
Work on `CC(C)CC1(C)OC(=O)c2c1ccn(CCc1ccc(Cl)cc1)c2=O` (racemic) yielded an IC50 of 12.7 µM.
In the case of `CCN(CC)CC(O)Cn1ccc2c(c1=O)C(=O)OC2(C)c1ccccc1` (mixture of isomers), the IC50 is reported as 4.4 µM.
In the case of `CCN(CC)CC(O)Cn1ccc2c(c1=O)C(=O)OC21CCCCC1` (centres undefined), the IC50 is reported as 6.7 µM.
For `CC1(Cc2ccccc2)OC(=O)c2c1ccn(-c1ccc(S(N)(=O)=O)cc1)c2=O` (racemic), the IC50 was 3.6 µM.
With `CC(=O)NS(=O)(=O)c1ccc(-n2ccc3c(c2=O)C(=O)OC3(C)C)cc1` the IC50 was 5.7 µM.
Compound `CC1(CCc2ccccc2)OC(=O)c2c1ccn(-c1ccc(S(N)(=O)=O)cc1)c2=O` (racemic) has an IC50 of 2.8 µM.
For `CC1(C)CC2(CCO1)OC(=O)c1c2ccn(CCCN2CCOCC2)c1=O` (centres undefined), the IC50 was 54.7 µM.
`CC1(C)OC(=O)c2c1ccn(-c1ccc(S(=O)(=O)NC(=N)N)cc1)c2=O` showed an IC50 of 5.9 µM.
